Experimental data taken from PMC11819603, “Development of a reliable, sensitive, and convenient assay for the discovery of new eIF5A hypusination inhibitors” (PLOS ONE, 2025).

Columns and labels:
DOHH = biological target: T1, DOHH (Homo sapiens, UniProt Q9BU89); assay: Hyp'Assay, substance added after the deoxyhypusination reaction (DOHH step); type: biochemical; details: for hypusination signal, Mean (quantification from Figure 3C): control 100,0
T1 construct: pelB leader (N); host or cells: E. coli BL21 (DE3)
T1 sequence (Q9BU89 1-302): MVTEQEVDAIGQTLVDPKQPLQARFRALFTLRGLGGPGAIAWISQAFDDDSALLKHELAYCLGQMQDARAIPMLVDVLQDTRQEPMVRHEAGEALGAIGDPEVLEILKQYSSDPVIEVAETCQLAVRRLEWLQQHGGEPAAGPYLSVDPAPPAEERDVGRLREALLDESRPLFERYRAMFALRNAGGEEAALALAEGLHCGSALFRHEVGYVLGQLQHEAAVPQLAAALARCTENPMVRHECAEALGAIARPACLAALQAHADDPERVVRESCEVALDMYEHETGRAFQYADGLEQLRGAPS
Protocol: We then tested the ability of DOHH inhibitors to inhibit eIF5A hypusination using the Hyp’Assay. During the Hyp’Assay, DOHH inhibitors were added after the deoxyhypusination reaction.
To address this issue, we compared the ability of GC7 to inhibit DHPS or DOHH by adding GC7 during the first step of the Hyp’Assay; when DHPS mediates the deoxyhypusination reaction (Fig 2A), or only during the second step, when DOHH hydroxylate deoxyhypusinated eIF5A. […] When finding new hypusination inhibitors adding them during the first or the second step of the Hyp’Assay will allow us to determine if the inhibition affects DHPS or DOHH. Another way to discriminate between DHPS or DOHH inhibitors would be to use Hpu98, an antibody that recognized both hypusinated and deoxyhypusinated eIF5A, instead of Hpu24, which is specific for hypusinated eIF5A [18]. […] We performed a new Hyp’Assay by omitting DOHH in the reaction mix and using the Hpu98 antibody. First, we performed a dose response experiment with spermidine at pH: 8.0 and 9.0 (Fig 3E). […] We also tested the ability of GC7 (Fig 3F) and CPX or EDTA (Fig 3G) to inhibit DHPS.
(§1) […] Then 10 μL containing 1 μg of DOHH with 10 μM Fe^2+ (H8FeN2O8S2^. 6H2O) were added. After 1 h proteins were analyzed by Western Blot using antibodies toward DHPS, DOHH, Hypusine, and eIF5A.
(§2) The cell-free reaction described in 4.4 is performed in triplicates in a 96-wells plate (MaxiSorp, ThermoFisher) in the presence of 3 μg of eIF5A, 2 μg of DHPS, and 2 μg of DOHH by well. The reaction product, hypusinated eIF5A, is adsorbed onto the plate overnight at 4°C. The plate is washed (100 μL/well) thrice with PBS-T (PBS– 0.05% Tween20), then saturated with 1% non-fat dry milk in PBS-T for 2 h at room temperature. The plate is washed thrice with PBS-T and incubated overnight at 4°C with the anti-hypusine antibody (1:2000 in saturation buffer, 50 μL/well). The next day and after 5 washes with PBS-T, HRP-coupled anti-rabbit secondary antibody diluted 1:5000 in saturation buffer (50 μL/well) is added for 2 h at room temperature.

DHPS = biological target: T2, DHPS (Homo sapiens, UniProt P49366); assay: Hyp'Assay: cell-free eIF5A hypusination in 96-well plates (recombinant eIF5A, DHPS, DOHH; anti-hypusine antibody Hpu24), substance present in the DHPS step; type: biochemical; details: for concentration from which inhibition of hypusination was detectable / hypusination signal, Mean (quantification from Figure 5A): 5 μM spermidine; for hypusination signal, Mean (quantification from Figure 5A): control 98,5; for hypusination signal, Mean (quantification from Figure 3B): control 100,0
T2 construct: host or cells: E. coli BL21 (DE3)
T2 sequence (P49366 1-369): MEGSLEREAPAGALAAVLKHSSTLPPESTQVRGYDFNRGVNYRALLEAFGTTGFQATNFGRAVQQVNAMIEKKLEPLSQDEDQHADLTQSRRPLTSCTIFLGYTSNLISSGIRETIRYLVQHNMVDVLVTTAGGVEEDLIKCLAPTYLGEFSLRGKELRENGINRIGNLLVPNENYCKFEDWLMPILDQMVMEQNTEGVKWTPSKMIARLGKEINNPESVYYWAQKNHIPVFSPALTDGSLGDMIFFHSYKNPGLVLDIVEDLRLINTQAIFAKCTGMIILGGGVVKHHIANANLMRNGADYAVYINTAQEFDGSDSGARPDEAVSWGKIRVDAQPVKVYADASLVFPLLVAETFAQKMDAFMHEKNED
Protocol: The principle of the Hyp’Assay (Fig 2A) is to perform eIF5A hypusination reaction in 96-well plates, allow eIF5A to adsorb to the plate, incubate with an anti-hypusine antibody and a secondary antibody conjugated to HRP and reveal hypusination using TMB as a substrate.
as §1, §2

[1] = system: eIF5A hypusination in MCF7 cells; assay: eIF5A hypusination in intact MCF7 cells, Western blot; type: cell-based, human; details: 40 μM, 24 h, Ctrl 100, 4 experiments
Protocol: We tested the ability of the GC7 analogs to inhibit hypusination in intact cells. MCF-7 cells (Fig 5B), a classical model of breast cancer cell line, and HT29 cells (Fig 5C), a cell model of colorectal cancer, were treated with 40 μM of GC7, 1, 2, 3, and 4 for 24h. Cells were lysed and analyzed by Western blot. As observed, none of the molecules modified eIF5A expression. […] GC7 analogs inhibited hypusination from 35 to 55%.
The human breast cancer cell line MCF7 (HTB-22 ATCC) and colorectal adenocarcinoma HT29 (HTB-38 ATCC) were cultured in DMEM (Gibco) supplemented with 10% FBS (Dutscher), 10 U/mL penicillin, and […] streptomycin. 1 mM of aminoguanidine was added to the medium to inhibit the degradation of GC7 and polyamines by amine oxidase from the serum and the production of reactive oxygen species. Cells were maintained at 37°C, 5% CO2 in a humid atmosphere.
After treatment, cells were washed with ice-cold PBS and lysed in RIPA Buffer (50 mM Tris pH 7.5, 150 mM NaCl, 0.1% SDS, 0.5% Na Deoxycholate, 5 mM NaF, 2.5 mM Na4P2O7, 1% NP4O) containing a protease inhibitor cocktail (complete Roche). 10 μg of proteins were separated by SDS PAGE and transferred to a PVDF membrane (Immobilon-P Millipore). The membranes were probed with the appropriate primary antibody that was detected by horseradish peroxidase-conjugated secondary antibody (Jackson Immunoresearch) and visualized by chemiluminescence (ECL Amersham RPN 3244) using a Fuji LAS-4000 imager. ImageJ® software was used to quantify band intensity and the ratios of proteins of interest were normalized to a loading control. Full-length Western blots are provided in the supplementary data (S19, S20 Figs).

[2] = concentration 1 (no unit on page; Fig 3C dose-response 0 to 100 μM)
[3] = concentration 10 (no unit on page; Fig 3C dose-response 0 to 100 μM)
[4] = concentration 100 (no unit on page; Fig 3C dose-response 0 to 100 μM)
[5] = concentration 1 (no unit on page; Fig 5A 0 to 1 mM)
[6] = concentration 10 (no unit on page; Fig 5A 0 to 1 mM)
[7] = concentration 100 (no unit on page; Fig 5A 0 to 1 mM)
[8] = concentration 1000 (no unit on page; Fig 5A 0 to 1 mM)
[9] = concentration 1 (no unit on page; Fig 3B dose-response 0 to 1 mM)
[10] = concentration 10 (no unit on page; Fig 3B dose-response 0 to 1 mM)
[11] = concentration 100 (no unit on page; Fig 3B dose-response 0 to 1 mM)
[12] = concentration 1000 (no unit on page; Fig 3B dose-response 0 to 1 mM)

Row | Structure (SMILES) | hypusination signal, Mean (quantification from Figure 3C) (DOHH; [2]) | hypusination signal, Mean (quantification from Figure 3C) (DOHH; [3]) | hypusination signal, Mean (quantification from Figure 3C) (DOHH; [4]) | concentration from which inhibition of hypusination was detectable (DHPS) [µM] | hypusination signal, Mean (quantification from Figure 5A) (DHPS; [5]) | hypusination signal, Mean (quantification from Figure 5A) (DHPS; [6]) | hypusination signal, Mean (quantification from Figure 5A) (DHPS; [7]) | hypusination signal, Mean (quantification from Figure 5A) (DHPS; [8]) | hypusinated eIF5A, Western blot quantification, Mean (Figure 5B) [1] | hypusination signal, Mean (quantification from Figure 3B) (DHPS; [9]) | hypusination signal, Mean (quantification from Figure 3B) (DHPS; [10]) | hypusination signal, Mean (quantification from Figure 3B) (DHPS; [11]) | hypusination signal, Mean (quantification from Figure 3B) (DHPS; [12]) | other results
1 | Nc1nc(=O)c2nc(CNc3ccc(C(=O)N[C@@H](CCC(=O)O)C(=O)O)cc3)cnc2[nH]1 [Folate, folic acid] | 56,38 | 57,32 | 65,33 |  |  |  |  |  |  |  |  |  |  | inhibition at 1 µM (DOHH; at 1 μM): 50%
2 | N=C(N)NCCCCO [compound 1, 4-hydroxybutylguanidine] |  |  |  | 1 | 70,7 | 62,5 | 61,5 | 55,2 | 65 |  |  |  |  | 
3 | N=C(N)NCCCCCCO [compound 2, 6-hydroxyhexylguanidine] |  |  |  | 1 | 81,3 | 64,4 | 59,1 | 44,6 | 44.5 |  |  |  |  | 
4 | NCCCCN [putrescine] |  |  |  |  |  |  |  |  |  | 111,3 | 94,6 | 95,3 | 30,5 | inhibition at 1000 µM (DHPS; at 1 mM): 70%
5 | NCCCNCCCCNCCCN [spermine] | 69,38 | 59,12 | 54,32 |  |  |  |  |  |  | 106,1 | 114,0 | 104,5 | 111,4 | effect on eIF5A hypusination (DHPS; concentrations up to 1 mM): did not affect eIF5A hypusination; use as alternate DHPS substrate (DHPS; dose response compared with spermidine (S3 Fig)): can be used as a substrate by DHPS in the Hyp’Assay, although with lower efficiency than spermidine; hypusination signal with the substance as substrate, Mean (quantification from Figure S3) (DHPS; substrate concentration 0,01 (mM)): -0,07; hypusination signal with the substance as substrate, Mean (quantification from Figure S3) (DHPS; substrate concentration 0,1 (mM)): 0,01; hypusination signal with the substance as substrate, Mean (quantification from Figure S3) (DHPS; substrate concentration 0,0001 (mM)): 0,19; hypusination signal with the substance as substrate, Mean (quantification from Figure S3) (DHPS; substrate concentration 0,001 (mM)): -0,08; hypusination signal with the substance as substrate, Mean (quantification from Figure S3) (DHPS; substrate concentration 1 (mM)): 2,17; hypusination signal with the substance as substrate, Mean (quantification from Figure S3) (DHPS; substrate concentration 10 (mM)): 21,70; hypusination signal with the substance as substrate, Mean (quantification from Figure S3) (DHPS; substrate concentration 100 (mM)): 39,64; hypusination signal with the substance as substrate, Mean (quantification from Figure S3) (DHPS; substrate concentration 1000 (mM)): 28,97
